Measured values from patent US20220323406A1, “METHODS AND COMPOSITIONS FOR DIFFERENTIATING STEM CELLS” (Massachusetts Institute of Technology, priority 2019, published 2022).
Where a name gives a salt, the structure may show the parent alone.

Key:
[1] = tested on: ENR+CD organoids (ISC to Paneth cell differentiation); assay: Primary screen: CCh-stimulated lysozyme secretion LYZ.S, 2.5-D 384-well ENR+CD organoid differentiation; type: cell-based, mouse; details: primary screen
Description: (§1) High-throughput screening.

[2] = tested on: ENR+CD organoids; assay: Primary screen: ATP (CellTiter-Glo 3D, CTG) cell number/viability, 2.5-D 384-well ENR+CD organoids;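 also: compounds given at plating and again on day 3 over a 6-day differentiation from ENR+CV stem-cell-enriched precursors, ATP measured on day 6, plate median as control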
[3] = tested on: ENR+CD organoids (ISC to Paneth cell differentiation); assay: Primary screen: basal (non-stimulated) lysozyme secretion LYZ.NS, 2.5-D 384-well ENR+CD organoid differentiation; type: cell-based, mouse
Description: as §1

[4] = primary screen, standard z score, dose 0.08 uM
[5] = primary screen, standard z score, dose 0.40 uM
[6] = primary screen, standard z score, dose 2.00 uM
[7] = primary screen, standard z score, dose 10.00 uM
[8] = primary screen, dose 0.08 uM, FC relative to plate median
[9] = primary screen, dose 0.40 uM, FC relative to plate median
[10] = primary screen, dose 2.00 uM, FC relative to plate median
[11] = primary screen, dose 10.00 uM, FC relative to plate median
[12] = primary screen, dose 0.08 uM, standard z score
[13] = primary screen, dose 0.40 uM, standard z score
[14] = primary screen, dose 2.00 uM, standard z score
[15] = primary screen, dose 10.00 uM, standard z score
[16] = dose 0.08 uM, FC vs plate median
[17] = dose 0.40 uM, FC vs plate median
[18] = dose 2.00 uM, FC vs plate median
[19] = dose 10.00 uM, FC vs plate median
[20] = primary screen; dose 0.08 uM; FC vs plate median
[21] = primary screen; dose 0.40 uM; FC vs plate median
[22] = primary screen; dose 2.00 uM; FC vs plate median
[23] = primary screen; dose 10.00 uM; FC vs plate median

## CN1CCC[C@@H]1CCO[C@](C)(c1ccccc1)c1ccc(Cl)cc1 [Clemastine Fumarate]
[1]; dose 0.08 uM
  Dose.FC.LYZ.S: 0.096 log2 fold change
[1]; dose 0.40 uM
  Dose.FC.LYZ.S: −0.066 log2 fold change
[1]; dose 2.00 uM
  Dose.FC.LYZ.S: −0.048 log2 fold change
[1]; dose 10.00 uM
  Dose.FC.LYZ.S: 0.001 log2 fold change
[2]; primary screen, dose 0.08 uM
  Dose.FC.CTG: 0.242 log2 fold change
[2]; primary screen, dose 0.40 uM
  Dose.FC.CTG: 0.036 log2 fold change
[2]; primary screen, dose 2.00 uM
  Dose.FC.CTG: 0.024 log2 fold change
[2]; primary screen, dose 10.00 uM
  Dose.FC.CTG: −0.424 log2 fold change
[2]; [4]
  Z.CTG: 0.578
[2]; [5]
  Z.CTG: 0.086
[2]; [6]
  Z.CTG: 0.058
[2]; [7]
  Z.CTG: −1.013
[3]; primary screen, dose 0.08 uM
  Dose.FC.LYZ.NS: 0.024 log2 fold change
[3]; primary screen, dose 0.40 uM
  Dose.FC.LYZ.NS: −0.026 log2 fold change
[3]; primary screen, dose 2.00 uM
  Dose.FC.LYZ.NS: −0.014 log2 fold change
[3]; primary screen, dose 10.00 uM
  Dose.FC.LYZ.NS: −0.061 log2 fold change
[3]; [4]
  Z.LYZ.NS: 0.210
[3]; [5]
  Z.LYZ.NS: −0.227
[3]; [6]
  Z.LYZ.NS: −0.124
[3]; [7]
  Z.LYZ.NS: −0.534

## CCCc1nc2c(C)cc(-c3nc4ccccc4n3C)cc2n1Cc1ccc(-c2ccccc2C(=O)O)cc1 [Telmisartan]
[1]; dose 0.08 uM, FC relative to plate median
  Dose.FC.LYZ.S: 0.140 log2 fold change
[1]; dose 0.40 uM, FC relative to plate median
  Dose.FC.LYZ.S: 0.106 log2 fold change
[1]; dose 2.00 uM, FC relative to plate median
  Dose.FC.LYZ.S: 0.063 log2 fold change
[1]; dose 10.00 uM, FC relative to plate median
  Dose.FC.LYZ.S: −0.003 log2 fold change
[2]; [8]
  Dose.FC.CTG: 0.134 log2 fold change
[2]; [9]
  Dose.FC.CTG: 0.244 log2 fold change
[2]; [10]
  Dose.FC.CTG: 0.064 log2 fold change
[2]; [11]
  Dose.FC.CTG: 0.230 log2 fold change
[3]; [8]
  Dose.FC.LYZ.NS: 0.139 log2 fold change
[3]; [12]
  Z.LYZ.NS: 1.213
[3]; [9]
  Dose.FC.LYZ.NS: 0.129 log2 fold change
[3]; [13]
  Z.LYZ.NS: 1.124
[3]; [10]
  Dose.FC.LYZ.NS: 0.057 log2 fold change
[3]; [14]
  Z.LYZ.NS: 0.499
[3]; [11]
  Dose.FC.LYZ.NS: −0.007 log2 fold change
[3]; [15]
  Z.LYZ.NS: −0.060

## COc1cc(Nc2ncc(F)c(Nc3ccc4c(n3)N(COP(=O)(O)O)C(=O)C(C)(C)O4)n2)cc(OC)c1OC [Fostamatinib (R788)]
[1]; dose 0.08 uM
  Dose.FC.LYZ.S: 0.235 log2 fold change
[1]; dose 0.40 uM
  Dose.FC.LYZ.S: 0.156 log2 fold change
[1]; dose 2.00 uM
  Dose.FC.LYZ.S: −0.015 log2 fold change
[1]; dose 10.00 uM
  Dose.FC.LYZ.S: −0.350 log2 fold change
[2]; primary screen, dose 0.08 uM
  Dose.FC.CTG: 0.232 log2 fold change
[2]; primary screen, dose 0.40 uM
  Dose.FC.CTG: −0.052 log2 fold change
[2]; primary screen, dose 2.00 uM
  Dose.FC.CTG: −0.231 log2 fold change
[2]; primary screen, dose 10.00 uM
  Dose.FC.CTG: −0.881 log2 fold change
[2]; [4]
  Z.CTG: 0.554
[2]; [5]
  Z.CTG: −0.123
[2]; [6]
  Z.CTG: −0.552
[2]; [7]
  Z.CTG: −2.105
[3]; primary screen, dose 0.08 uM
  Dose.FC.LYZ.NS: 0.119 log2 fold change
[3]; primary screen, dose 0.40 uM
  Dose.FC.LYZ.NS: −0.025 log2 fold change
[3]; primary screen, dose 2.00 uM
  Dose.FC.LYZ.NS: −0.099 log2 fold change
[3]; primary screen, dose 10.00 uM
  Dose.FC.LYZ.NS: −0.234 log2 fold change
[3]; [4]
  Z.LYZ.NS: 1.033
[3]; [5]
  Z.LYZ.NS: −0.217
[3]; [6]
  Z.LYZ.NS: −0.860
[3]; [7]
  Z.LYZ.NS: −2.036

## CCn1c(-c2nonc2N)nc2c(C#CC(C)(C)O)ncc(OC[C@H]3CCCNC3)c21 [GSK690693]
[1]; dose 0.08 uM
  Dose.FC.LYZ.S (log2 fold change): 0.019
[1]; dose 0.40 uM
  Dose.FC.LYZ.S (log2 fold change): 0.155
[1]; dose 2.00 uM
  Dose.FC.LYZ.S (log2 fold change): 0.124
[1]; dose 10.00 uM
  Dose.FC.LYZ.S (log2 fold change): −0.153
[2]; primary screen, dose 0.08 uM
  Dose.FC.CTG (log2 fold change): 0.129
  Z.CTG (standard z score): 0.308
[2]; primary screen, dose 0.40 uM
  Dose.FC.CTG (log2 fold change): 0.197
  Z.CTG (standard z score): 0.470
[2]; primary screen, dose 2.00 uM
  Dose.FC.CTG (log2 fold change): −0.027
  Z.CTG (standard z score): −0.064
[2]; primary screen, dose 10.00 uM
  Dose.FC.CTG (log2 fold change): −0.182
  Z.CTG (standard z score): −0.434
[3]; primary screen, dose 0.08 uM
  Dose.FC.LYZ.NS (log2 fold change): 0.045
  Z.LYZ.NS (standard z score): 0.388
[3]; primary screen, dose 0.40 uM
  Dose.FC.LYZ.NS (log2 fold change): 0.047
  Z.LYZ.NS (standard z score): 0.409
[3]; primary screen, dose 2.00 uM
  Dose.FC.LYZ.NS (log2 fold change): 0.122
  Z.LYZ.NS (standard z score): 1.060
[3]; primary screen, dose 10.00 uM
  Dose.FC.LYZ.NS (log2 fold change): −0.080
  Z.LYZ.NS (standard z score): −0.698

## Cc1nc(C(=O)NCC(=O)O)c(O)c2ccc(Oc3ccccc3)cc12 [FG-4592]
[1]; dose 0.08 uM
  Dose.FC.LYZ.S: 0.083 log2 fold change
[1]; dose 0.40 uM
  Dose.FC.LYZ.S: 0.234 log2 fold change
[1]; dose 2.00 uM
  Dose.FC.LYZ.S: 0.152 log2 fold change
[1]; dose 10.00 uM
  Dose.FC.LYZ.S: 0.071 log2 fold change
[2]; primary screen, dose 0.08 uM
  Dose.FC.CTG: 0.327 log2 fold change
[2]; primary screen, dose 0.40 uM
  Dose.FC.CTG: 0.284 log2 fold change
[2]; primary screen, dose 2.00 uM
  Dose.FC.CTG: 0.290 log2 fold change
[2]; primary screen, dose 10.00 uM
  Dose.FC.CTG: 0.238 log2 fold change
[3]; primary screen, dose 0.08 uM
  Dose.FC.LYZ.NS: 0.077 log2 fold change
[3]; primary screen, dose 0.40 uM
  Dose.FC.LYZ.NS: 0.170 log2 fold change
[3]; primary screen, dose 2.00 uM
  Dose.FC.LYZ.NS: 0.094 log2 fold change
[3]; primary screen, dose 10.00 uM
  Dose.FC.LYZ.NS: 0.030 log2 fold change
[3]; [4]
  Z.LYZ.NS: 0.673
[3]; [5]
  Z.LYZ.NS: 1.484
[3]; [6]
  Z.LYZ.NS: 0.822
[3]; [7]
  Z.LYZ.NS: 0.265

## CC(C)C[C@H](NC(=O)CNC(=O)c1cc(Cl)ccc1Cl)B(O)O [MLN2238]
[1]; [16]
  Dose.FC.LYZ.S: −0.383 log2 fold change
[1]; [17]
  Dose.FC.LYZ.S: −0.358 log2 fold change
[1]; [18]
  Dose.FC.LYZ.S: −0.353 log2 fold change
[1]; [19]
  Dose.FC.LYZ.S: −0.370 log2 fold change
[2]; [20]
  Dose.FC.CTG: −1.655 log2 fold change
[2]; [21]
  Dose.FC.CTG: −1.104 log2 fold change
[2]; [22]
  Dose.FC.CTG: −1.233 log2 fold change
[2]; [23]
  Dose.FC.CTG: −1.761 log2 fold change
[3]; [12]
  Z.LYZ.NS: −2.358
[3]; [13]
  Z.LYZ.NS: −2.477
[3]; [14]
  Z.LYZ.NS: −2.166
[3]; [15]
  Z.LYZ.NS: −2.597
[3]; [20]
  Dose.FC.LYZ.NS: −0.271 log2 fold change
[3]; [21]
  Dose.FC.LYZ.NS: −0.284 log2 fold change
[3]; [22]
  Dose.FC.LYZ.NS: −0.249 log2 fold change
[3]; [23]
  Dose.FC.LYZ.NS: −0.298 log2 fold change

## CC(C)(C)Cn1c(N)nc2ccc(-c3[nH]c(C(C)(C)C)nc3-c3ccc(F)cc3)nc21 [LY2228820]
[1]; dose 0.08 uM
  Dose.FC.LYZ.S (log2 fold change): −0.017
[1]; dose 0.40 uM
  Dose.FC.LYZ.S (log2 fold change): −0.054
[1]; dose 2.00 uM
  Dose.FC.LYZ.S (log2 fold change): −0.130
[1]; dose 10.00 uM
  Dose.FC.LYZ.S (log2 fold change): −0.164
[2]; primary screen, dose 0.08 uM
  Dose.FC.CTG (log2 fold change): −0.299
  Z.CTG (standard z score): −0.715
[2]; primary screen, dose 0.40 uM
  Dose.FC.CTG (log2 fold change): −0.340
  Z.CTG (standard z score): −0.812
[2]; primary screen, dose 2.00 uM
  Dose.FC.CTG (log2 fold change): −0.339
  Z.CTG (standard z score): −0.810
[2]; primary screen, dose 10.00 uM
  Dose.FC.CTG (log2 fold change): −0.332
  Z.CTG (standard z score): −0.793
[3]; primary screen, dose 0.08 uM
  Dose.FC.LYZ.NS (log2 fold change): 0.065
  Z.LYZ.NS (standard z score): 0.569
[3]; primary screen, dose 0.40 uM
  Dose.FC.LYZ.NS (log2 fold change): −0.100
  Z.LYZ.NS (standard z score): −0.874
[3]; primary screen, dose 2.00 uM
  Dose.FC.LYZ.NS (log2 fold change): 0.043
  Z.LYZ.NS (standard z score): 0.377
[3]; primary screen, dose 10.00 uM
  Dose.FC.LYZ.NS (log2 fold change): −0.126
  Z.LYZ.NS (standard z score): −1.099

## C[C@]1(O)C[C@@H](c2nc(-c3ccc4ccc(-c5ccccc5)nc4c3)c3c(N)nccn32)C1 [OSI-906 (Linsitinib)]
[1]; [16]
  Dose.FC.LYZ.S: −0.026 log2 fold change
[1]; [17]
  Dose.FC.LYZ.S: −0.119 log2 fold change
[1]; [18]
  Dose.FC.LYZ.S: −0.288 log2 fold change
[1]; [19]
  Dose.FC.LYZ.S: −0.328 log2 fold change
[2]; [12]
  Z.CTG: −0.775
[2]; [13]
  Z.CTG: −0.377
[2]; [14]
  Z.CTG: −0.661
[2]; [15]
  Z.CTG: −0.934
[2]; [20]
  Dose.FC.CTG: −0.324 log2 fold change
[2]; [21]
  Dose.FC.CTG: −0.158 log2 fold change
[2]; [22]
  Dose.FC.CTG: −0.277 log2 fold change
[2]; [23]
  Dose.FC.CTG: −0.391 log2 fold change
[3]; [12]
  Z.LYZ.NS: 0.110
[3]; [13]
  Z.LYZ.NS: −0.806
[3]; [14]
  Z.LYZ.NS: −1.882
[3]; [15]
  Z.LYZ.NS: −1.996
[3]; [20]
  Dose.FC.LYZ.NS: 0.013 log2 fold change
[3]; [21]
  Dose.FC.LYZ.NS: −0.093 log2 fold change
[3]; [22]
  Dose.FC.LYZ.NS: −0.216 log2 fold change
[3]; [23]
  Dose.FC.LYZ.NS: −0.229 log2 fold change
